Source: patent US9738612B2, “Methylacryloyl benzimidazolone derivative and anti-tumour use thereof” (SHANGHAI NATURE STANDARD R&D AND BIOTECH CO., LTD, priority 2014, dated 2017)
“Also recorded” adds a separate entry of the source.

Assays:
Assay type in all cases: cell-based
[1] = tested on: A549; test: Sulforhodamine B proliferation; conditions: SRB; for Inhibitory rate % (A549): 10 μM, 72 h; for inhibition at 10 µM: Homo sapiens, A549, 72 h, read-out: Inhibitory rate % (A549)
Procedure: (§1) At a certain density cells were seeded in 96-well plates, and adhered overnight. The medium was discarded after incubating cells with compounds to be tested for 72 h, then 100μL/well trichloroacetic acid (TCA) was added to fix cells at 4° C. for 2h. After that the fixing solution was discarded. Cells were gently washed 5 times with distilled water, dried at room temperature. Cells were stained with 4 mg/mL SRB staining solution (100 μL/well) at room temperature for 15min. The staining solution was discarded, and cells were washed five times with 1% acetic acid (HAC) and dried at room temperature. To the plate tris base buffer (10 mM) was added at 150 μL/well and placed at room temperature for 15min. The OD values were measured at 540 nm wavelength in a microplate reader. Inhibitory rate (%)=(OD valuecontrol wells−OD valuedrugs treated wells)/OD valuecontrol wells×100%.
(§2) The results were shown in Table 2, the working concentrations of MK2206 and compounds of FD series were 10 μM. As shown in this Table, PC-3 is a prostate cancer cell line purchased from Cell Resource Center of Shanghai Institutes for Biological Sciences, Chinese Academy of Sciences, A549 is a lung cancer cell line purchased from Cell Resource Center of Shanghai Institutes for Biological Sciences, Chinese Academy of Sciences, and SGC-7901 is a gastric cancer cell line purchased from Cell Resource Center of Shanghai Institutes for Biological Sciences, Chinese Academy of Sciences.

[2] = tested on: SGC-7901; test: Sulforhodamine B proliferation; conditions: SRB; for Inhibitory rate % (SGC-7901): 10 μM, 72 h; for inhibition at 10 µM: Homo sapiens, SGC-7901, 72 h, read-out: Inhibitory rate % (SGC-7901)
Procedure: as §1, §2

[3] = tested on: PC-3; test: Sulforhodamine B proliferation; conditions: SRB; for inhibition at 10 µM: Homo sapiens, PC-3, 72 h, read-out: Inhibitory rate % (PC-3); for inhibition at 10 µM / Inhibitory rate % (PC-3): 72 h
Procedure: as §1, §2

[4] = tested on: p-Akt (S473); test: Western blot, p-Akt (S473) in IGF stimulated A549 cells; conditions: compound 1 h, IGF 10 min, FIG. 1, in words
Procedure: A549 cells were seeded at a density of 2×10^5 cells/well into 12-well plates, and adhered overnight. Then the medium was discarded and the plates were washed three times with normal saline. After that, fresh serum-free medium was added to starve cells for 24 hours, compounds to be tested were added to work for 1 h, then IGF-I was added to stimulated for 10 min, followed byadding a lysis buffer on ice to lyse for half an hour. The cell lysates were collected and centrifuged at 20000×g at 4° C. for 10min, then the supernatant was collected. Protein was quantified by MicroBCA protein quantification Assay kit, and the protein concentration was normalized. The supernatant was mixed with the 4×SDS sample buffer [200 mM Tris.Cl (pH 6.8), 400 mM DTT, 8% SDS, 0.4% bromophenol blue, 40% glycerol] and boiled for 15 min. After cooling at room temperature, aliquots were loaded on polyacrylamide gel, and electrophoresed in Tris-glycine electrophoretic buffer (25 mM Tris, 250 mM glycine, 0.1% SDS) at 80-120 V for about 2 h. Proteins were transferred from the gel to a nitrocellulose membrane by a semi-dry method. Transferring conditions: transfer buffer (39 mM glycine, 48 mM Tris base, 0.037% SDS, 20% methanol); transfer current 25 mA; transfer time 2 h. After transfer, Ponceau S staining was used to determine the transfer efficiency and the positions of protein bands on the nitrocellulose membranes. After labeling the membrane was blocked with a blocking solution containing 5% nonfat-dried milk [5% nonfat-dried milk, 20 mM Tris-HCl (pH 7.2-7.4), 150 mM NaCl, 0.1% (v/v) Tween 20] on a shaker at room temperature for 2 h. To the system were added specific primary antibodies and incubated overnight at 4° C. Then the membrane was washed with PBST solution [20 mM Tris-HCl (pH 7.2-7.4), 150 mM NaCl, 0.1% (v/v) Tween 20] at room temperature three times, 15 min/time. To the system were added Horseradish peroxidase-labeled secondary antibodies and incubated at room temperature on a shaker with gentle shaking for 2 h. After washing with PBST solution three times, the system was exposed, developed and fixed after SuperSignal West Dura Chemiluminescent Substrate (Pierce Inc, Rochford, IL) was used for color. The results were shown in FIG. 1, in which there were 12 lanes the band shade and size of which indicated the corresponding protein concentration levels. […] MK2206 was an Akt phosphorylation inhibitor developed by Merck, and was currently in phase II clinical trial, showing good therapeutic effects in a variety of tumors.

[5] = tested on: Akt phosphorylation at S473 site; test: ELISA (double antibody sandwich), Akt phosphorylation in IGF-1 stimulated A549 cells; conditions: for Inhibitory rate % (Akt phosphorylation): drug 1 h, then IGF-1 10 min, p-Akt (S473) ELISA; for Effect on Akt phosphorylation compared with positive control: ELISA, in words
Procedure: Establishment of ELISA screening method using a double antibody sandwich method: A549 cells (a lung cancer cell line, purchased from Chinese Academy of Sciences, Shanghai Institutes for Biological Sciences Cell Resource Center) were inoculated at certain densities in 12-well plates, and incubated at 37° C. in a carbon dioxide incubator overnight to let cells attach the plate wells. Meanwhile the Akt antibody was inoculated at a specific concentration in a highly-adsorbed microplate, and placed in a refrigerator at 4° C. The 12-well plates were washed with sterile PBS three times, then into which serum-free F12 was added, and incubated for 24 hours in a incubator. Then MK2206, Triciribine and FD series drugs were added into 12-well plates and worked for one hour, followed by adding 100 ng of IGF-1 and being stimulated for 10 minutes. The 12-well plates were washed with pre-cooled PBS three times, and 100 μl of RIPA lysis buffer was added into each well to lyse cells on ice for 20 minutes. The lysates were collected and added to the appropriate microplate (purchased from Santa Cruz biotechnology), which were shaken on ice. A p-Akt (S473) antibody (purchased Cell Signaling Technology, Inc.) was added into microplates. After shaking for a period of time, an anti-rabbit antibody (purchased from Cell Signaling Technology, Inc.) was added. The reaction was terminated with 2M sulfuric acid after TMB developed. Absorbance at 450 nm was measured on a microplate reader, and the inhibitory rate=[…], among which ODsample refers to the absorbance of the sample well, ODIGF refers the absorbance of the well with IGF only, OD—IGF refers the absorbance of the well withoutIGF.

| Structure (SMILES) | Inhibitory rate % (A549) [1] | Inhibitory rate % (SGC-7901) [2] | Inhibiting effect on PC-3 tumor cells (PTEN deficient) proliferation relative to other lines ([3]; 10 μM, in words) | inhibition at 10 µM [3] | Effect on Akt phosphorylation level (p-Akt S473 band) [4] | Inhibitory rate % (Akt phosphorylation) [5] | Inhibitory rate % (PC-3) ([3]; 10 μM) | Effect on Akt phosphorylation compared with positive control [5] | inhibition at 10 µM [1] | inhibition at 10 µM [2] |
| --- | --- | --- | --- | --- | --- | --- | --- | --- | --- | --- |
| C=C(C)n1c(=O)n(C(C)=O)c2ccc([N+](=O)[O-])cc21 [FD1] | 9.6% | 56.4% | more significant | 51.1% | significantly reduce the Akt phosphorylation level; also recorded: comparable effects to MK2206 | 85% | – | – | – | – |
| C=C(C)n1c(=O)n(C(C)=O)c2ccc([N+](=O)[O-])cc21 [FD2] | 3.4% | 23.4% | – | – | – | 51% | 32.4% | comparable effects with that of Triciribine | – | – |
| C=C(C)n1c(=O)n(C(=O)CC)c2cc([N+](=O)[O-])ccc21 [FD4] | – | – | – | 33.9% | – | 50% | – | comparable effects with that of Triciribine | 7.2% | 22% |
| C=CC(=O)n1c(=O)n(C(=C)C)c2cc([N+](=O)[O-])ccc21 [FD5] | – | – | – | 29.1% | – | 20% | – | – | 22.3% | 7.3% |
| C=CC(=O)n1c(=O)n(C(=C)C)c2ccc([N+](=O)[O-])cc21 [FD6] | – | – | – | 24.2% | – | 10% | – | – | 18.2% | 30.4% |
| C=C(C)C(=O)n1c(=O)n(C(=C)C)c2cc([N+](=O)[O-])ccc21 [FD7] | – | – | – | 22.6% | – | 6% | – | – | 34.1% | 34.1% |
| C=C(C)C(=O)n1c(=O)n(C(=C)C)c2ccc([N+](=O)[O-])cc21 [FD8] | – | – | – | 13.4% | – | 3% | – | – | 2.8% | 28% |
| C=C(C)n1c(=O)n(C(=O)CCC)c2ccc([N+](=O)[O-])cc21 [FD9] | 1.1% | – | – | 26.1% | – | 22% | – | – | – | 26.4% |
| C=C(C)n1c(=O)n(C(=O)CCC)c2cc([N+](=O)[O-])ccc21 [FD10] | – | – | – | 13.8% | – | 17% | – | – | 5.3% | 28.1% |
| C=C(C)n1c(=O)n(C(=O)CCC)c2ccc([N+](=O)[O-])cc21 [FD11] | 2.4% | 13.6% | – | – | – | 11% | 19.2% | – | – | – |
| C=C(C)n1c(=O)n(C(=O)CCC)c2cc([N+](=O)[O-])ccc21 [FD12] | 3.8% | 19.8% | – | – | – | 48% | 8.2% | comparable effects with that of Triciribine | – | – |
| C=C(C)n1c(=O)n(C(=O)CCCCC)c2ccc([N+](=O)[O-])cc21 [FD13] | – | – | – | – | – | 56% | – | comparable effects with that of Triciribine | – | – |
| C=C(C)n1c(=O)n(C(=O)CCCCC)c2cc([N+](=O)[O-])ccc21 [FD14] | – | – | – | 9% | – | 34% | – | – | 13.1% | 25.5% |
| C=C(C)n1c(=O)n(C(=O)CCCCCCC)c2ccc([N+](=O)[O-])cc21 [FD15] | – | – | – | 4.6% | – | 42% | – | – | 33.3% | 20.1% |
| C=C(C)n1c(=O)n(C(=O)CCCCCCC)c2cc([N+](=O)[O-])ccc21 [FD16] | – | – | – | 7.1% | – | 64% | – | – | 23.2% | 12.4% |
| C=C(C)n1c(=O)n(C(=O)c2ccccc2C)c2ccc([N+](=O)[O-])cc21 [FD17] | – | – | – | 20% | – | 38% | – | – | 31.4% | 40.5% |
| C=C(C)n1c(=O)n(C(=O)c2ccccc2C)c2cc([N+](=O)[O-])ccc21 [FD18] | – | – | – | 32.1% | – | 42% | – | – | 11.5% | 44.2% |
| NC1(c2ccc(-c3nc4ccn5c(=O)[nH]nc5c4cc3-c3ccccc3)cc2)CCC1 [MK2206, reference compound] | 61.0% | 24.3% | – | – | significantly reduce the Akt phosphorylation level; also recorded: significantly inhibited the increase of Akt phosphorylation level stimulated by IGF | 92% | 1.2% | – | – | – |
